Measurements as given in US12257243B2, “5-hydroxy-7-oxabicyclo[2.2.1]heptane-2-carboxamide derivatives for inducing chondrogenesis for treating joint damage” (NOVARTIS AG, priority 2018, dated 2025).
pIC50: −log10 of the molar value. Where two headings read alike, the source gives them in different places.

Tested on: ALP in normal human articular chondrocytes (NHACs)
Experiment: Alkaline Phosphatase (ALP) activity assay (staining and quantitation) in NHACs, prevention of chondrocyte hypertrophy
Format: cell-based
Conditions: human IL-1 beta 10 ng/mL, 12 days; for pIC50: Fast Blue RR staining, high content imaging, read-out: ALP in NHAC IC50; for Emax / ALP in NHAC (% Efficacy): value in parentheses; for Emax: read-out: ALP in NHAC (% Efficacy)
In short: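 Hypertrophy readout: ALP staining (Fast Blue RR with naphthol AS-MX phosphate) plus Hoechst, imaged at 561 nm and/or quantified by high-content multiwavelength cell scoring. Before staining, NHACs (7,500/well, DMEM/10% FBS) were exposed to compound for 5 h, then cultured with 10 ng/mL IL-1β for 12 days at 37 °C.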

## Cn1cc([C@H]2[C@H]3O[C@H](C[C@@H]3O)[C@@H]2C(=O)Nc2cc(F)cc(C(F)(F)F)c2)c(C(F)(F)F)n1 (racemic) [Example 45, rac-(1R,2R,3S,4R,5S)—N-(3-fluoro-5-(trifluoromethyl)phenyl)-5-hydroxy-3-(1-methyl-3-(trifluoromethyl)-1H-pyrazol-4-yl)-7-oxabicyclo[2.2.1]heptane-2-carboxamide]
Chondrocyte, 288 h
  pIC50: 5.15
  Emax: 61%

## O=C(Nc1ccc(F)c(C(F)(F)F)c1)[C@@H]1[C@@H](c2cccc(C(F)(F)F)c2)[C@H]2O[C@@H]1C[C@@H]2O (racemic) [Example 16, rac-(1R,2R,3S,4R,5S)—N-(4-fluoro-3-(trifluoromethyl)phen)-5-hydroxy-3-(3-(trifluoromethyl)phenyl)-7-oxabicyclo[2.2.1]heptane-2-carboxamide]
Chondrocyte, 288 h
  pIC50: 4.92
  Emax: 105%

## O=C(Nc1ccc(C(F)(F)F)c(Cl)n1)[C@@H]1[C@@H](c2cccc(C(F)(F)F)c2)[C@H]2O[C@@H]1C[C@@H]2O (racemic) [Example 25, rac-(1R,2R,3S,4R,5S)—N-(6-chloro-5-(trifluoromethyl)pyridin-2-yl)-5-hydroxy-3-(3-(trifluoromethyl)phenyl)-7-oxabicyclo[2.2.1]heptane-2-carboxamide]
Chondrocyte, 288 h
  pIC50: 5.54
  Emax: 112%

## Cc1cc(NC(=O)[C@@H]2[C@@H](c3cc(C(F)(F)F)nn3C)[C@H]3O[C@@H]2C[C@@H]3O)cc(C(F)(F)F)c1 (racemic) [Example 71, rac-(1R,2R,3S,4R,5S)-5-hydroxy-3-(1-methyl-3-(trifluoromethyl)-1H-pyrazol-5-yl)-N-(3-methyl-5-(trifluoromethyl)phenyl)-7-oxabicyclo[2.2.1]heptane-2-carboxamide]
Chondrocyte, 288 h
  pIC50: < 4.52
  Emax: 29%

## CC(C)n1cc([C@H]2[C@H]3O[C@H](C[C@@H]3O)[C@@H]2C(=O)Nc2cc(C(F)(F)F)ccc2F)c(C(F)(F)F)n1 (racemic) [Example 85, rac-(1R,2R,3S,4R,5S)—N-(2-fluoro-5-(trifluoromethyl)phenyl)-5-hydroxy-3-(1-isopropyl-3-(trifluoromethyl-1H-pyrazol-4-yl-7-oxabicyclo[2.2.1]heptane-2-carboxamide]
Chondrocyte, 288 h
  pIC50: < 4.52
  Emax: 44%

## COc1cc([C@H]2[C@H]3O[C@H](C[C@@H]3O)[C@@H]2C(=O)Nc2ccc(C(F)(F)F)c(Cl)c2)ccn1 (racemic) [Example 79, rac-(1R,2R,3S,4R,5S)—N-(3-chloro-4-trifluoromethyl)phenyl)-5-hydroxy-3-(2-methoxypyridin-4-yl)-7-oxabicyclo[2.2.1]heptane-2-carboxamide]
Chondrocyte, 288 h
  pIC50: 4.92
  Emax: 75%

## O=C(Nc1ccc(N2CCOCC2)c(C(F)(F)F)c1)[C@@H]1[C@@H](c2cccc(C(F)(F)F)c2)[C@H]2O[C@@H]1C[C@@H]2O (racemic) [Example 23, rac-(1R,2R,3S,4R,5S)-5-hydroxy-N-(4-morpholino-3-(trifluoromethyl)phenyl)-3-(3-(trifluoromethyl)phenyl)-7-oxabicyclo[2.2.1]heptane-2-carboxamide]
Chondrocyte, 288 h
  pIC50: 4.77
  Emax: 108%

## COc1ccc(C(F)(F)F)cc1NC(=O)[C@@H]1[C@@H](c2cccc(C(F)(F)F)c2)[C@H]2O[C@@H]1C[C@@H]2O (racemic) [Example 22, rac-(1R,2R,3S,4R,5S)-5-hydroxy-N-(2-methoxy-5-(trifluoromethyl)phenyl-3-(3-(trifluoromethyl)phenyl)-7-oxabicyclo[2.2.1]heptane-2-carboxamide]
Chondrocyte, 288 h
  pIC50: 4.57
  Emax: 75%

## CCOc1cc(C(F)(F)F)cc(NC(=O)[C@@H]2[C@@H](c3cccc(C(F)(F)F)c3)[C@H]3O[C@@H]2C[C@@H]3O)n1 (racemic) [Example 9, rac-(1R 2R,3S,4R,5S)—N-(6-ethoxy-4-(trifluoromethyl)pyridin-2-yl-5-hydroxy-3-(3-(trifluoromethyl)phenyl)-7-oxabicyclo[2.2.1]heptane-2-carboxamide]
Chondrocyte, 288 h
  pIC50: 4.92
  Emax: 108%

## O=C(Nc1ccc(C(F)(F)F)c(Cl)n1)[C@@H]1[C@@H](c2cccc(C(F)(F)F)c2)[C@H]2O[C@@H]1C[C@@H]2O (single isomer, unassigned) [Example 25a, (1R,2R,3S,4R,5S)—N-(6-chloro-5-(trifluoromethyl)pyridin-2-yl)-5-hydroxy-3-(3-(trifluoromethyl)phenyl)-7-oxabicyclo[2.2.1]heptane-2-carboxamide or (1S,2S,3R,4S,5R)—N-(6-chloro-5-(trifluoromethylpyridin-2-yl)-5-hydroxy-3-(3-(trifluoromethyl)phenyl)-7-oxabicyclo[2.2.1]heptane-2-carboxamide]
  pIC50: 6.26
  ALP in NHAC (% Efficacy): 89%

## Cc1ccc(C(F)(F)F)cc1NC(=O)[C@@H]1[C@@H](c2cccc(C(F)(F)F)c2)[C@H]2O[C@@H]1C[C@@H]2O (racemic) [Example 14, rac-(1R,2R,3S,4R,5S)-5-hydroxy-N-(2-methyl-5-(trifluoromethyl)phenyl)-3-(3-(trifluoromethyl)phenyl)-7-oxabicyclo[2.2.1]heptane-2-carboxamide]
Chondrocyte, 288 h
  pIC50: 4.89
  Emax: 78%

## Cn1cc([C@H]2[C@H]3O[C@H](C[C@@H]3O)[C@@H]2C(=O)Nc2ccc(C(F)(F)F)c(F)c2)c(C(F)(F)F)n1 (racemic) [Example 55, rac-(1R,2R,3S,4R,5S)—N-(3-fluoro-4-(trifluoromethylphenyl)-5-hydroxy-3-(1-methyl-3-(trifluoromethyl)-1H-pyrazol-4-yl)-7-oxabicyclo[2.2.1]heptane-2-carboxamide]
Chondrocyte, 288 h
  pIC50: 4.80
  Emax: 65%

## Cn1nc(C(F)(F)F)cc1[C@H]1[C@H]2O[C@H](C[C@@H]2O)[C@@H]1C(=O)Nc1ccc(C(F)(F)F)cc1 (racemic) [Example 62, rac-(1R,2R,3S,4R,5S)-5-hydroxy-3-(1-methyl-3-(trifluoromethyl)-1H-pyrazol-5-yl)-N-(4-(trifluoromethyl)phenyl)-7-oxabicyclo[2.2.1]heptane-2-carboxamide]
Chondrocyte, 288 h
  pIC50: 4.80
  Emax: 73%

## Cn1cc([C@H]2[C@H]3O[C@H](C[C@@H]3O)[C@@H]2C(=O)Nc2cc(C(F)(F)F)cc(Cl)n2)c(C(F)(F)F)n1 (racemic) [Example 35, rac-(1R,2R,3S,4R,5S)—N-(6-chloro-4-(trifluoromethyl)pyridin-2-yl)-5-hydroxy-3-(1-methyl-3-(trifluoromethyl)-1H-pyrazol-4-yl)-7-oxabicyclo[2.2.1]heptane-2-carboxamide]
Chondrocyte, 288 h
  pIC50: 5.01
  Emax: 83%

## Cn1nc(C(F)(F)F)cc1[C@H]1[C@H]2O[C@H](C[C@@H]2O)[C@@H]1C(=O)Nc1cc(C(F)(F)F)ccc1C#N (single isomer, unassigned) [Example 72a, (1R,2R,3S,4R,5S)—N-(2-cyano-5-(trifluoromethyl)phenyl)-5-hydroxy-3-(1-methyl-3-(trifluoromethyl)-1H-pyrazol-5-yl)-7-oxabicyclo[2.2.1]heptane-2-carboxamide or (1S,2S,3R,4S,5R)—N-(2-cyano-5-(trifluoromethyl)phenyl)-5-hydroxy-3-(1-methyl-3-(trifluoromethyl)-1-pyrazol-5-yl)-7-oxabicyclo[2.2.1]heptane-2-carboxamide]
  pIC50: 5.51
  ALP in NHAC (% Efficacy): 107%

## CC(C)n1cc([C@H]2[C@H]3O[C@H](C[C@@H]3O)[C@@H]2C(=O)Nc2ccc(C(F)(F)F)c(Cl)c2)c(C(F)(F)F)n1 (racemic) [Example 87, rac-(1R,2R,3S,4R,5S)—N-(3-chloro-4-trifluoromethyl)phenyl)-5-hydroxy-3-(1-isopropyl-3-(trifluoromethyl)-1H-pyrazol-4-yl)-7-oxabicyclo[2.2.1]heptane-2-carboxamide]
Chondrocyte, 288 h
  pIC50: 4.85
  Emax: 64%

## COc1ccc(C(F)(F)F)cc1NC(=O)[C@H]1[C@H](c2cn(C)nc2C(F)(F)F)[C@@H]2O[C@H]1C[C@H]2O (single isomer, unassigned) [Example 33b, (1R,2R,3S,4R,5S)-5-hydroxy-N-(2-methoxy-5-trifluoromethyl)phenyl)-3-(1-methyl-3-(trifluoromethyl)-1H-pyrazol-4-L)-7-oxabicyclo[2.2.1]heptane-2-carboxamide or (1S,2S,3R,4S,5R)-5-hydroxy-N-(2-methoxy-5-(trifluoromethyl)phenyl)-3-(1-methyl-3-(trifluoromethyl)-1H-pyrazol-4-L)-7-oxabicyclo[2.2.1]heptane-2-carboxamide]
  pIC50: 5.51
  ALP in NHAC (% Efficacy): 99%

## O=C(Nc1cc(C(F)(F)F)c(Cl)cn1)[C@@H]1[C@@H](c2cccc(C(F)(F)F)c2)[C@H]2O[C@@H]1C[C@@H]2O (racemic) [Example 6, rac-(1R,2R,3S,4R 5S)—N-(5-chloro-4-(trifluoromethyl)pyridin-2-yl)-5-hydroxy-3-(3-(trifluoromethyl)phenyl)-7-oxabicyclo[2.2.1]heptane-2-carboxamide]
Chondrocyte, 288 h
  pIC50: < 4.52
  Emax: 38%

## COc1cc([C@H]2[C@H]3O[C@H](C[C@@H]3O)[C@@H]2C(=O)Nc2ccc(C)c(C(F)(F)F)c2)ccn1 (racemic) [Example 68, rac-(1R,2R,3,4R,5S)-5-hydroxy-3-(2-methoxypyridin-4-yl)-N-(4-methyl-3-(trifluoromethyl)phenyl)-7-oxabicyclo[2.2.1]heptane-2-carboxamide]
Chondrocyte, 288 h
  pIC50: < 4.52
  Emax: 31%

## COc1cc([C@@H]2[C@@H]3O[C@@H](C[C@H]3O)[C@H]2C(=O)Nc2cc(C(F)(F)F)ccc2C#N)ccn1 (single isomer, unassigned) [Example 78a, (1R,2R,3S,4R,5)-N-(2-cyano-5-(trifluoromethyl)phenyl)-5-hydroxy-3-(2-methoxypyridin-4-yl)-7-oxabicyclo[2.2.1]heptane-2-carboxamide or (1S,2S,3R,4S,5R)—N-(2-cyano-5-(trifluoromethyl)phenyl)-5-hydroxy-3-(2-methoxypyridin-4-yl)-7-oxabicyclo[2.2.1]heptane-2-carboxamide]
  pIC50: 5.96
  ALP in NHAC (% Efficacy): 100%
